Measurements taken from the supplement of paper PMC10307832.

Each cell line was assayed with CC1=C(C(=NN1)C)CC2=C(C3=C(S2)N(C(=O)N(C3=O)C)CC(C)C)C(=O)N4C[C@@H](CO4)O + CS(=O)(=O)N1CCN(Cc2cc3nc(-c4cccc5[nH]ncc45)nc(N4CCOCC4)c3s2)CC1 [Pictilisib] (partner 1 µM) (assay: relative viability (nuclei count vs DMSO), 5 days (fraction); higher = more cells survive). Conditions: first compound 0.0025 µM.
In short: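 Relative viability equals treated-well nuclei counts divided by vehicle-well nuclei counts. Counts came from 4× images of lung cancer cell lines grown in 1536-well plates for 5 days after pin-tool dosing on the day after seeding. Dosing used one drug alone or a fixed anchor-drug dose plus five library-drug doses (not always all listed) in √10 steps, and values are medians of duplicate plates.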

First: Calu-6
Second: HCC-366
The relative viability of the first is higher: 1.01 for the first, 0.139 for the second.

First: NCI-H1666
Second: NCI-H596
The relative viability of the first is higher: 0.405 for the first, 0.387 for the second.

Compared with LK-2, NCI-H2087 is higher in relative viability: 0.548 for the first, 0.958 for the second.

Going from SK-MES-1 to H3255, the relative viability rises from 0.385 to 0.523.

Compared with COR-L23, COR-L 105 is lower in relative viability: 0.806 for the first, 0.406 for the second.

Going from IA-LM to LOU-NH91, the relative viability rises from 0.393 to 0.503.

First: NCI-H2170
Second: NCI-H2405
The relative viability of the first is lower: 0.228 for the first, 0.459 for the second.

Going from HOP-62 to HCC-44, the relative viability falls from 0.719 to 0.615.

Going from A549 to LU99A, the relative viability falls from 0.391 to 0.351.

Compared with BEN, HARA is lower in relative viability: 0.557 for the first, 0.473 for the second.

Compared with HCC-78, NCI-H322M is higher in relative viability: 0.217 for the first, 0.519 for the second.

Compared with LCLC-97TM1, NCI-H2009 is higher in relative viability: 0.188 for the first, 0.875 for the second.

Going from A-427 to NCI-H661, the relative viability falls from 0.733 to 0.473.

Going from NCI-H1734 to NCI-H460, the relative viability falls from 0.474 to 0.432.

First: NCI-H2347
Second: SK-LU-1
The relative viability of the first is higher: 0.905 for the first, 0.544 for the second.

Same assay, conditions: first compound 0.007906 µM

First: NCI-H2085
Second: Calu-6
The relative viability of the first is lower: 0.455 for the first, 0.939 for the second.

Going from HCC-366 to NCI-H1666, the relative viability rises from 0.141 to 0.399.

First: NCI-H596
Second: LK-2
The relative viability of the first is lower: 0.369 for the first, 0.509 for the second.

Compared with NCI-H2087, SK-MES-1 is lower in relative viability: 0.908 for the first, 0.421 for the second.

Going from H3255 to COR-L23, the relative viability rises from 0.473 to 0.794.

Compared with COR-L 105, IA-LM is lower in relative viability: 0.445 for the first, 0.272 for the second.

Compared with LOU-NH91, NCI-H2170 is lower in relative viability: 0.494 for the first, 0.293 for the second.

First: NCI-H2405
Second: HOP-62
The relative viability of the first is lower: 0.422 for the first, 0.876 for the second.

First: HCC-44
Second: A549
The relative viability of the first is higher: 0.689 for the first, 0.505 for the second.

Compared with LU99A, BEN is higher in relative viability: 0.314 for the first, 0.512 for the second.

First: HARA
Second: HCC-78
The relative viability of the first is higher: 0.372 for the first, 0.218 for the second.

Going from NCI-H322M to LCLC-97TM1, the relative viability falls from 0.504 to 0.268.

Compared with NCI-H2009, A-427 is lower in relative viability: 0.884 for the first, 0.685 for the second.

Compared with NCI-H661, NCI-H1734 is higher in relative viability: 0.41 for the first, 0.544 for the second.

First: NCI-H460
Second: NCI-H2347
The relative viability of the first is lower: 0.492 for the first, 0.909 for the second.

In the case of SK-LU-1, the relative viability is reported as 0.354.

Same assay, conditions: first compound 0.025 µM

Compared with NCI-H2085, Calu-6 is higher in relative viability: 0.449 for the first, 0.887 for the second.

First: HCC-366
Second: NCI-H1666
The relative viability of the first is lower: 0.25 for the first, 0.53 for the second.

First: NCI-H596
Second: LK-2
The relative viability of the first is lower: 0.387 for the first, 0.67 for the second.

First: NCI-H2087
Second: SK-MES-1
The relative viability of the first is higher: 0.838 for the first, 0.369 for the second.

First: H3255
Second: COR-L23
The relative viability of the first is lower: 0.43 for the first, 0.522 for the second.

Going from COR-L 105 to IA-LM, the relative viability rises from 0.376 to 0.395.

Going from LOU-NH91 to NCI-H2170, the relative viability falls from 0.495 to 0.298.

Compared with HOP-62, HCC-44 is lower in relative viability: 0.903 for the first, 0.616 for the second.

First: A549
Second: LU99A
The relative viability of the first is higher: 0.538 for the first, 0.331 for the second.

First: BEN
Second: HARA
The relative viability of the first is higher: 0.435 for the first, 0.369 for the second.

Compared with HCC-78, NCI-H322M is higher in relative viability: 0.172 for the first, 0.562 for the second.

Going from LCLC-97TM1 to NCI-H2009, the relative viability rises from 0.22 to 0.842.

Going from A-427 to NCI-H661, the relative viability falls from 0.679 to 0.378.

Going from NCI-H1734 to NCI-H460, the relative viability falls from 0.488 to 0.356.

First: NCI-H2347
Second: SK-LU-1
The relative viability of the first is higher: 0.507 for the first, 0.336 for the second.

Same assay, conditions: first compound 0.07906 µM

First: NCI-H2085
Second: Calu-6
The relative viability of the first is lower: 0.468 for the first, 0.949 for the second.

First: HCC-366
Second: NCI-H1666
The relative viability of the first is lower: 0.193 for the first, 0.482 for the second.

First: NCI-H596
Second: LK-2
The relative viability of the first is lower: 0.431 for the first, 0.696 for the second.

First: NCI-H2087
Second: SK-MES-1
The relative viability of the first is higher: 1.04 for the first, 0.398 for the second.

Compared with H3255, COR-L23 is higher in relative viability: 0.45 for the first, 0.589 for the second.

First: COR-L 105
Second: IA-LM
The relative viability of the first is higher: 0.398 for the first, 0.347 for the second.

Compared with LOU-NH91, NCI-H2170 is lower in relative viability: 0.571 for the first, 0.341 for the second.

First: NCI-H2405
Second: HOP-62
The relative viability of the first is lower: 0.432 for the first, 0.787 for the second.

Compared with HCC-44, A549 is lower in relative viability: 0.6 for the first, 0.52 for the second.

First: LU99A
Second: BEN
The relative viability of the first is lower: 0.345 for the first, 0.593 for the second.

First: HARA
Second: HCC-78
The relative viability of the first is higher: 0.506 for the first, 0.169 for the second.

First: NCI-H322M
Second: LCLC-97TM1
The relative viability of the first is higher: 0.58 for the first, 0.182 for the second.

Going from NCI-H2009 to A-427, the relative viability falls from 0.998 to 0.843.

First: NCI-H661
Second: NCI-H1734
The relative viability of the first is lower: 0.379 for the first, 0.473 for the second.

Going from NCI-H460 to NCI-H2347, the relative viability rises from 0.367 to 0.836.

SK-LU-1 showed a relative viability of 0.327.

Same assay, conditions: first compound 0.25 µM

Compared with NCI-H2085, Calu-6 is higher in relative viability: 0.399 for the first, 0.981 for the second.

First: HCC-366
Second: NCI-H1666
The relative viability of the first is lower: 0.212 for the first, 0.406 for the second.

Going from NCI-H596 to LK-2, the relative viability rises from 0.593 to 0.607.

First: NCI-H2087
Second: SK-MES-1
The relative viability of the first is higher: 0.921 for the first, 0.432 for the second.

First: H3255
Second: COR-L23
The relative viability of the first is lower: 0.62 for the first, 0.635 for the second.

Compared with COR-L 105, IA-LM is higher in relative viability: 0.356 for the first, 0.375 for the second.

Going from LOU-NH91 to NCI-H2170, the relative viability falls from 0.529 to 0.297.

Going from NCI-H2405 to HOP-62, the relative viability rises from 0.476 to 0.825.

Going from HCC-44 to A549, the relative viability falls from 0.616 to 0.54.

First: LU99A
Second: BEN
The relative viability of the first is lower: 0.327 for the first, 0.556 for the second.

First: HARA
Second: HCC-78
The relative viability of the first is higher: 0.283 for the first, 0.194 for the second.

Compared with NCI-H322M, LCLC-97TM1 is lower in relative viability: 0.5 for the first, 0.199 for the second.

Going from NCI-H2009 to A-427, the relative viability falls from 0.909 to 0.826.

Going from NCI-H661 to NCI-H1734, the relative viability rises from 0.385 to 0.486.

First: NCI-H460
Second: NCI-H2347
The relative viability of the first is lower: 0.387 for the first, 0.547 for the second.

SK-LU-1 showed a relative viability of 0.343.

The cell lines below were run with CC1=C(C(=NN1)C)CC2=C(C3=C(S2)N(C(=O)N(C3=O)C)CC(C)C)C(=O)N4C[C@@H](CO4)O (assay: relative viability (nuclei count vs DMSO), 5 days (fraction); higher = more cells survive). Conditions: 0.0025 µM.
In short: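 Vehicle-anchored 1536-well plates of lung cancer cell lines, held overnight at 37 °C, were pinned with five library-drug doses (not always all listed) spaced by √10. No medium change followed over the next 5 days, after which the cells were fixed, permeabilised and Hoechst-stained together and imaged at 4×. Nuclei were counted with MetaXpress, and viability is treated-well nuclei over vehicle-well nuclei, taken as a median across plates. Plates passed with control CV below 25% and at least one doubling.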

For NCI-H2085, the relative viability was 0.992.
